In ChEMBL document CHEMBL3886519, “Pyrazolo[1,5a]pyrimidine derivatives as IRAK4 modulators” (2016) one finds IC50 data, which are given here for 8 compounds.

In experiment [1] the target is T1, Interleukin-1 receptor-associated kinase 4 (Homo sapiens, UniProt Q9NWZ3).
T1 sequence (Q9NWZ3 whole entry): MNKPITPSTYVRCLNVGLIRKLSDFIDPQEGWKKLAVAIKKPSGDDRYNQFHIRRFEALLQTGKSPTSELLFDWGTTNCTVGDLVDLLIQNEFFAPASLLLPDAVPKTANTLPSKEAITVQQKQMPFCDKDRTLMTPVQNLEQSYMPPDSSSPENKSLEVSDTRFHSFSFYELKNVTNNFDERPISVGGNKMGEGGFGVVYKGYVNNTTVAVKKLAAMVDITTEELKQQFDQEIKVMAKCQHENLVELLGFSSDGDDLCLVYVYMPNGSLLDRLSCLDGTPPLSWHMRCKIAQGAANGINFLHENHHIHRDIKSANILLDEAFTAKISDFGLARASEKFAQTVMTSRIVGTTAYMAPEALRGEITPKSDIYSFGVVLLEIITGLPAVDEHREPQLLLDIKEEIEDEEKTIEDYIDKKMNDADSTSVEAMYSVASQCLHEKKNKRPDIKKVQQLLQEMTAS
The experiment is described as follows: (§1) In vitro IRAK-1 and IRAK-4 Assay: Purified recombinant IRAK-4 protein was incubated with 250 uM synthetic peptide([…]) in 30 ul of kinase buffer including (20 mM MOPS pH7.2, 25 mM beta glycerol phosphate, 5 mM EGTA, 1 mM sodium orthovanadate, 1 mM DTT, 50 uM ATP, 20 mM MgCl2, 10 uCi gamma-33P, 0.1% BSA) for the indicated time. For purified recombinant IRAK-1 protein kinase assay, 50 uM ATP was used. A 25 ul aliquot of the reaction mixture was transferred on to p81 phosphocellulose squares (Upstate Biotechnology, Lake Placid, N.Y.). The assay squares were washed three times with 0.75% phosphoric acid and once with acetone. Enzyme activity was measured by determining the bound radioactivity by liquid scintillation counting.

For experiment [2], the target named is Tyrosine-protein kinase SYK (Homo sapiens, UniProt P43405). Nature of the experiment: In vitro SYK Kinase Assay: SYK activity is measured by phosphorylation of a peptide substrate (Biotin-[…]) with [gamma-33P] ATP. The enzyme reaction was conducted at 20 uM ATP with 0.05 uCi [gamma-33P]ATP (2 uCi for 40 ul assay) and 10 uM peptide substrate at final volume of 40 ul in buffer containing 50 mM Hepes, pH 7.2, 1 mM dithiothreitol, 10 mM MgCl2, 100 uM Na3VO4, 0.1% BSA and 10% DMSO. The enzyme assay was carried out with human full length SYK in the presence or absence of ten compound concentrations. SYK and compound were pre-incubated for 10 minutes. Then, the enzymatic reaction was initiated by addition of ATP and peptide substrate. The reaction mixture was incubated at room temperature for 30 minutes. At the end of incubation, the reaction was terminated by transferring 25 ul of the reaction mixture to 100 ul of 10% streptavidin slurry containing 100 mM EDTA. The reaction product was captured on the affinity resin and sequentially washed on a filtration plate (Millipore, MABVNOB50) with 2M NaCl, 2M M NaCl in 1% phosphoric acid and water to remove free radio nucleotide. Then the incorporation of 33P into peptide substrate was quantified on a microplate scintillation counter.

In experiment [3] the target is Interleukin-1 receptor-associated kinase 1 (Homo sapiens, UniProt P51617). The experiment is described as §1.
Interleukin-1 receptor-associated kinase 1, sequence (P51617 whole entry): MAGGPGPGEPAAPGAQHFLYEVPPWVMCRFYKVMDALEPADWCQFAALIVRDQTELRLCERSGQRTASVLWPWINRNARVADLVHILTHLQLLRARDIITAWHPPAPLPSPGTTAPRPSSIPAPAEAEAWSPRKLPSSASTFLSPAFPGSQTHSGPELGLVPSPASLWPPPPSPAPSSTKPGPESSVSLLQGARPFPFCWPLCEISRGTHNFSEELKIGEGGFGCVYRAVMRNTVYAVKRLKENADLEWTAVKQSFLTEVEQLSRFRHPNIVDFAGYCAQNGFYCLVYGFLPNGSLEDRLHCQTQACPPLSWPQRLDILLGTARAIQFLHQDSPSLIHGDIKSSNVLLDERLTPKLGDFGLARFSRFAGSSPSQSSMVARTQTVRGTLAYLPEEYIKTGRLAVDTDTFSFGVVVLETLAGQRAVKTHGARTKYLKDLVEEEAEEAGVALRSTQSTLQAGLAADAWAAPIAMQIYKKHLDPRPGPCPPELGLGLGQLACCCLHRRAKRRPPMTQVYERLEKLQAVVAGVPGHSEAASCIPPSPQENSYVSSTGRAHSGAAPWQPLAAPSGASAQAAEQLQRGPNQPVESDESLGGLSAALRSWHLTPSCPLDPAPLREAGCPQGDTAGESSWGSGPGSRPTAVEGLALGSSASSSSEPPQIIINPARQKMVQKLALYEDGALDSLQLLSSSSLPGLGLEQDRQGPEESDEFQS

The IC50 is the concentration that inhibits the measured activity by half. In the case of `COc1cc2ncccc2cc1NC(=O)c1csc2cncnc12`, the figures for the half-inhibitory concentration (IC50) in experiment [1] and in experiment [2] were 18 nM and 622 nM, respectively.

`CC(O)C1CCN(c2ccc(Cl)cc2NC(=O)c2cnn3cccnc23)CC1` (stereo not given): the half-maximal inhibitory concentration (IC50) in experiment [3] came out at 970 nM; in experiment [1] it was 5 nM.

As for `O=C(Nc1cc2cccnc2cc1OC1CCC(O)CC1)c1csc2cncnc12` (stereo not given), the IC50 in experiment [3] amounted to 123 nM; in experiment [1], 24 nM.

`COc1cc2nc(NCCO)ccc2cc1NC(=O)c1csc2cncnc12`: the IC50 in experiment [3] was determined as 200 nM; in experiment [1] it was 10 nM.

For `O=C(Nc1cc2cccnc2cc1N1CCCCC1)c1csc2cncnc12`, the IC50 in experiment [1] was determined as 12 nM.

With `O=C(Nc1cc(Cl)ccc1OC1CCC(O)CC1)c1cnn2cc(O)cnc12` (stereo not given), the half-inhibitory concentration (IC50) in experiment [3] came to 163 nM; in experiment [1] it was 23 nM.

Turning to `O=C(Nc1cc2cccnc2cc1O[C@H]1CC[C@@H](O)CC1)c1csc2cncnc12`, the values for the half-maximal inhibitory concentration (IC50) in experiment [3] and in experiment [1] were 70 nM and 7 nM, respectively.

Take `COc1cc2ncccc2cc1NC(=O)c1cnn2cc(O)cnc12`: the IC50 was determined as 200 nM in experiment [3] and 9 nM in experiment [1].
